Experimental data published in publication PMC7680421 (Cell chemical biology, 2020).

Experiments:
[1] = Plasma kinetics: half-life of radiolabeled cGAMP in mouse plasma; format: in vitro ADME; conditions: 5 μM cGAMP, 37 °C
[2] = Plasma kinetics: half-life of radiolabeled cGAMP in human plasma; format: in vitro ADME; conditions: based on 5 healthy donors, 5 μM cGAMP, 37 °C
Mouse ENPP1 [3] = molecular target: T1, Mouse ENPP1 (Mus musculus, UniProt P06802); conditions: substrate cGAMP, pH 7.4
T1 sequence (P06802 92-905 isoform P06802-2): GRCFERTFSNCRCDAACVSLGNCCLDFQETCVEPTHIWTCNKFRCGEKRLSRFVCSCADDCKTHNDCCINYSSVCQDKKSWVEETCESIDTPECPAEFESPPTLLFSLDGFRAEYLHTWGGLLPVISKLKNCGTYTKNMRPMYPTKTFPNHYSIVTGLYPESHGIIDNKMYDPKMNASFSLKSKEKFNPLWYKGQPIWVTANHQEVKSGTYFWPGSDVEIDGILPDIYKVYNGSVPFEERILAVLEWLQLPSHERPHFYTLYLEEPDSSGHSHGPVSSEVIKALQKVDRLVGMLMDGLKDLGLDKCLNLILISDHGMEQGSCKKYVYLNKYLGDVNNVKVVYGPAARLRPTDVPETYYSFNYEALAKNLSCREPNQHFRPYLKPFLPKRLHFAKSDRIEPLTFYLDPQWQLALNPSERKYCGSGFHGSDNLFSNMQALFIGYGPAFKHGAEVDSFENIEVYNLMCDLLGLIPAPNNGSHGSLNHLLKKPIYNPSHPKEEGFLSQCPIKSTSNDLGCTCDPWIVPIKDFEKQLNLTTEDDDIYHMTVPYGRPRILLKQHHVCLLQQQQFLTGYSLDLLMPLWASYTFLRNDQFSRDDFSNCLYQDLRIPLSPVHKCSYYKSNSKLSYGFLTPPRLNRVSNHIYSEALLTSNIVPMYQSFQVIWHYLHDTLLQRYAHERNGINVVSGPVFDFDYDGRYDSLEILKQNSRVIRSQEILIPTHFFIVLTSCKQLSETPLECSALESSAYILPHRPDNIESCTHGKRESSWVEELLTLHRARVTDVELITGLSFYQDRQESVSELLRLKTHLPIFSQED

ENPP1 in human plasma = ENPP1 in human plasma (Homo sapiens, UniProt P22413); conditions: 50 mM EDTA, 37 °C
Sequence of ENPP1 in human plasma (P22413 103-925 limits assumed): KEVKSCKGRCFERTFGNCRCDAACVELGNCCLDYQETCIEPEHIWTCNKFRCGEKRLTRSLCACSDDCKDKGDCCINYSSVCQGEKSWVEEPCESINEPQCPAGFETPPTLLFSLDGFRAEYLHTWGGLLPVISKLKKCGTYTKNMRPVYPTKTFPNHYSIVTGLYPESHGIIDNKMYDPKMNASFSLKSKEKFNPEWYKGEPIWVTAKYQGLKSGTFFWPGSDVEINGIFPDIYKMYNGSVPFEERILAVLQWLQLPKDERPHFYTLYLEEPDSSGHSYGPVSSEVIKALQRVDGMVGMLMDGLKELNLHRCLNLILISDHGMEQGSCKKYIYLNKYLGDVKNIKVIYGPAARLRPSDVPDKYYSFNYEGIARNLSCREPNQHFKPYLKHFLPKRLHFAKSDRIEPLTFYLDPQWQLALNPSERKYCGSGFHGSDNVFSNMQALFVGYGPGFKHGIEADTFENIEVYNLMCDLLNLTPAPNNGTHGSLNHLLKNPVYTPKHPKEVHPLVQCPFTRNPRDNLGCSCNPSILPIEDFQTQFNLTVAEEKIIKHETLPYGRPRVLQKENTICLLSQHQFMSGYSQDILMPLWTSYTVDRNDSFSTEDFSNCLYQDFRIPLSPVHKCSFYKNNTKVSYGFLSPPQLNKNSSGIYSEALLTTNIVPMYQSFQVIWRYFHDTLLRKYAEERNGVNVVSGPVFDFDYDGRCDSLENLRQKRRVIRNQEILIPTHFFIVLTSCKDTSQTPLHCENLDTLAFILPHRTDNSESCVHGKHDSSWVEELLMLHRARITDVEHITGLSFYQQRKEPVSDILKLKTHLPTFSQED

ENPP1 in mouse plasma = molecular target: T2, ENPP1 in mouse plasma (Mus musculus, UniProt P06802); test: Inhibition of cGAMP degradation in mouse plasma; format: biochemical; conditions: 50 mM EDTA, 37 °C
T2 sequence (P06802 85-906 limits assumed): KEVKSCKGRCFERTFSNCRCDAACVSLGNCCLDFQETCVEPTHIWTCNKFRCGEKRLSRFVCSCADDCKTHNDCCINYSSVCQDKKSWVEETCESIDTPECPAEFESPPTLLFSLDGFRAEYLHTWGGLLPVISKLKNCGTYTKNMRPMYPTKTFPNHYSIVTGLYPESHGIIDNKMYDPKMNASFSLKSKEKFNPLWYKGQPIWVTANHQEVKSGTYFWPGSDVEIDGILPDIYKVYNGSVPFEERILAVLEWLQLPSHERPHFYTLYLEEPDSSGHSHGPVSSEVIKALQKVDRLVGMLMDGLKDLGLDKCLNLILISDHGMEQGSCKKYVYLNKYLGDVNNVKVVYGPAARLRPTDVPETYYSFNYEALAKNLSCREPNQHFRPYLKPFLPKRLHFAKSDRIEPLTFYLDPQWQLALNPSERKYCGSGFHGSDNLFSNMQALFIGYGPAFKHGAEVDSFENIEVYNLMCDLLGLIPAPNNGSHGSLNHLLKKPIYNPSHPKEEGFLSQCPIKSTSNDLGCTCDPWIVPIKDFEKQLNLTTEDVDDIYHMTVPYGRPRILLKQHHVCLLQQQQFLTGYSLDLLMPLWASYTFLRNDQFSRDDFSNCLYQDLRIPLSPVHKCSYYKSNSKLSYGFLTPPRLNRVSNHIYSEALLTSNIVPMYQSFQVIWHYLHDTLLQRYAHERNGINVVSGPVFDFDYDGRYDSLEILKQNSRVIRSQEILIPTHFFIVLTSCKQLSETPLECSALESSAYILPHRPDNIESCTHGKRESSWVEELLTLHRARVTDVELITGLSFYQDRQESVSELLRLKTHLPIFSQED

Mouse ENPP1 [4] = molecular target: T1, Mouse ENPP1; test: In vitro ENPP1 activity assay with cGAMP as substrate; format: biochemical; conditions: Ki at pH 7.4
hERG channel = hERG channel (Homo sapiens, UniProt Q12809); test: hERG channel inhibition assay; conditions: at 25 μM
Sequence of hERG channel (Q12809 whole entry): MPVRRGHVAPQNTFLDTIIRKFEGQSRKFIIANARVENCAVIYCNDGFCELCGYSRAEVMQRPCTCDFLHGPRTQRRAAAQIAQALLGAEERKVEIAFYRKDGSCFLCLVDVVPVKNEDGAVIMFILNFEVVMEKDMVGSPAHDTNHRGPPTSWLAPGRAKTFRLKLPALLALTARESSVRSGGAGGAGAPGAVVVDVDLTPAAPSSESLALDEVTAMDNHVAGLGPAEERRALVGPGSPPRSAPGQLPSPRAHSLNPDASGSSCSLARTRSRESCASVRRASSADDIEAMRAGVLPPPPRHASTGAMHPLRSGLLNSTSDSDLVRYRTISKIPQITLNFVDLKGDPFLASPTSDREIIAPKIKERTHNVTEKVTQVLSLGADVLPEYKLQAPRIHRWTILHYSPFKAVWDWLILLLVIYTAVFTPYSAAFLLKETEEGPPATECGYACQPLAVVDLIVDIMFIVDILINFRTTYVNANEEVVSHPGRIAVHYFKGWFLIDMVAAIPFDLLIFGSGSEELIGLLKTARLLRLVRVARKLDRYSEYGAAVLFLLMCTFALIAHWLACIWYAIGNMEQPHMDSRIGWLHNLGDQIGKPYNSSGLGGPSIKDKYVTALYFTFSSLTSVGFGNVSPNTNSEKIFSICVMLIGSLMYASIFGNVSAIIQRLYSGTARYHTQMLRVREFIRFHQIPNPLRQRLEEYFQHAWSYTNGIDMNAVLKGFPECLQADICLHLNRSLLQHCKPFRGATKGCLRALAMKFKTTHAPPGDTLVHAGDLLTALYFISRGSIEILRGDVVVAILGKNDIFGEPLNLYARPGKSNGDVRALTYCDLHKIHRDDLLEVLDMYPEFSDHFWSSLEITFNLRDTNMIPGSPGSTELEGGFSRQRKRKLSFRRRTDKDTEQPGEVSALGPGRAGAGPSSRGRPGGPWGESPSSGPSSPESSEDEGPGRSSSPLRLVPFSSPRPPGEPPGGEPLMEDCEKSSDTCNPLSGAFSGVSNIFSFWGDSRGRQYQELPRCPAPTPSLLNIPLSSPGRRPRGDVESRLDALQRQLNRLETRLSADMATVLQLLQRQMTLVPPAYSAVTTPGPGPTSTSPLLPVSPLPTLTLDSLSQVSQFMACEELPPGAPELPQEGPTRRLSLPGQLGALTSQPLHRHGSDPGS

Nc1nc2c(ncn2[C@@H]2O[C@@H]3COP(=O)(O)O[C@H]4[C@@H](O)[C@H](n5cnc6c(N)ncnc65)O[C@@H]4COP(=O)(O)O[C@@H]2[C@@H]3O)c(=O)[nH]1 [cGAMP, 2’,3’-cyclic GMP-AMP]
t1/2 of cGAMP [1]: 16 min | t1/2 of cGAMP [2]: 30 to 60 min | Km (Mouse ENPP1 [3]): 240 µM

O=C(O)CN(CCN(CC(=O)O)CC(=O)O)CC(=O)O [EDTA]
effect on cGAMP degradation (ENPP1 in human plasma): abrogated cGAMP degradation | effect on cGAMP degradation (ENPP1 in mouse plasma): abrogated cGAMP degradation

COc1cc2nccc(N3CCC(CCP(=O)(O)O)CC3)c2cc1OC [compound 46]
loss in potency compared to compound 15 (Mouse ENPP1 [4]): 3 fold

COc1ccc2ncnc(N3CCC(CCP(=O)(O)O)CC3)c2c1 [compound 25]
loss in potency compared to compound 15 (Mouse ENPP1 [4]): 100 fold

COc1cc2ncnc(N3CCC(CCP(=O)(O)O)CC3)c2cc1OC [compound 15]
hERG inhibition (hERG channel): no inhibition
